Measured values published in US20070128217A1 (priority 2003, published 2007).

Tests used:
[1] = system: recombinant human anti-SARS-CoV antibody 03-018; assay type: binding; set-up: Binding of antibody 03-018 to linear peptides of the N protein of SARS-CoV Urbani / Binding of antibody 03-018 to looped/cyclic peptides of the N protein of SARS-CoV Urbani: unit not given here
[2] = system: antibodies in sera from SARS patients (sera 1a, 1b, 2, 6, 37, 62, London, SARS-yellow, SARS-green); assay type: binding, human; set-up: Binding of serum 6 to linear peptides of protein X1 of SARS-CoV Urbani / Binding of serum 37 to linear peptides of protein X1 of SARS-CoV Urbani / Binding of serum 6 to looped/cyclic peptide (PEPSCAN-ELISA) / Binding of serum 37 to looped/cyclic peptide (PEPSCAN-ELISA) / Binding of serum 37 to looped/cyclic peptides of protein X1 of SARS-CoV Urbani / Binding of serum 6 to linear peptides of protein X2 / Binding of serum 37 to linear peptides of protein X2 / Binding of serum 37 to looped/cyclic peptides of protein X2 of SARS-CoV Urbani / Binding of serum 6 to linear peptides of protein M of SARS-CoV Urbani / Binding of serum 37 to linear peptides of protein M of SARS-CoV Urbani / Binding of serum 6 to looped/cyclic peptides of protein M of SARS-CoV Urbani / Binding of serum 37 to looped/cyclic peptides of protein M of SARS-CoV Urbani / Binding of serum 6 to linear peptides of protein X3 of SARS-CoV Urbani / Binding of serum 37 to linear peptides of protein X3 of SARS-CoV Urbani / Binding of serum 37 to looped/cyclic peptides of protein X3 of SARS-CoV Urbani / Binding of serum 6 to linear peptides of protein X4 of SARS-CoV Urbani / Binding of serum 37 to linear peptides of protein X4 of SARS-CoV Urbani / Binding of serum 37 to looped/cyclic peptides of protein X4 of SARS-CoV Urbani / Binding of serum 6 to linear peptides of protein X5 of SARS-CoV Urbani / Binding of serum 37 to linear peptides of protein X5 of SARS-CoV Urbani / Binding of serum 37 to looped/cyclic peptides of protein X5 of SARS-CoV Urbani / Binding of serum 6 to linear peptides of protein N of SARS-CoV Urbani / Binding of serum 37 to linear peptides of protein N of SARS-CoV Urbani / Binding of serum 6 to linear peptide (PEPSCAN-ELISA) / Binding of serum 1a to looped/cyclic peptides of protein N of SARS-CoV Urbani / Binding of serum 1b to looped/cyclic peptides of protein N of SARS-CoV Urbani / Binding of serum 2 to looped/cyclic peptides of protein N of SARS-CoV Urbani / Binding of serum 6 to looped/cyclic peptides of protein N of SARS-CoV Urbani / Binding of serum 37 to looped/cyclic peptides of protein N of SARS-CoV Urbani / Binding of serum 62 to looped/cyclic peptides of protein N of SARS-CoV Urbani / Binding of serum London to looped/cyclic peptides of protein N of SARS-CoV Urbani / Binding of serum SARS-green to looped/cyclic peptides of protein N of SARS-CoV Urbani: unit not given here
[3] = system: control sera (pooled serum of ten healthy LUMC hospital workers; commercial negative donor pooled serum from the Dutch bloodbank); assay type: binding, human; set-up: Binding of Control serum LUMC to linear peptides / Binding of Control serum Blood-bank to linear peptides / Binding of Control serum LUMC to looped peptides / Binding of Control Serum Blood-Bank to Looped peptides / Binding of Control serum LUMC to linear peptides of the protein M of SARS-CoV Urbani / Binding of Control serum Blood-bank to linear peptides of the protein M of SARS-CoV Urbani / Binding of Control serum LUMC to looped peptides of the protein M of SARS-CoV Urbani / Binding of Control Serum Blood-Bank to Looped peptides of the protein M of SARS-CoV Urbani: unit not given here
[4] = system: rabbit serum obtained by immunizing a rabbit with the SARS-CoV strain Frankfurt 1; assay type: binding; set-up: Binding of a rabbit serum to linear peptides / Binding of a rabbit serum to looped peptides / Rabbit serum linear peptides / Rabbit serum looped peptides / Binding of a rabbit serum to linear peptides of protein N of SARS-CoV Urbani (Rabbit serum linear peptides) / Binding of a rabbit serum to looped/cyclic peptides of protein N of SARS-CoV Urbani (Rabbit serum looped peptides): unit not given here

Sequence: IGMEVTPSGTWLTYH
- Binding of antibody 03-018 to linear peptides of the N protein of SARS-CoV Urbani [1]: 0.1
- Binding of antibody 03-018 to looped/cyclic peptides of the N protein of SARS-CoV Urbani [1]: 0.2
- Binding of serum 1a to linear peptides of protein N of SARS-CoV Urbani [2]: 0.2
- Binding of serum 1a to looped/cyclic peptides of protein N of SARS-CoV Urbani [2]: 0.5
- Binding of serum 1b to linear peptides of protein N of SARS-CoV Urbani [2]: 0.1
- Binding of serum 1b to looped/cyclic peptides of protein N of SARS-CoV Urbani [2]: 0.3
- Binding of serum 2 to linear peptides of protein N of SARS-CoV Urbani [2]: 0.1
- Binding of serum 2 to looped/cyclic peptides of protein N of SARS-CoV Urbani [2]: 0.5
- Binding of serum 6 to linear peptides of protein N of SARS-CoV Urbani [2]: 0.2
- Binding of serum 6 to looped/cyclic peptides of protein N of SARS-CoV Urbani [2]: 0.3
- Binding of serum 37 to linear peptides of protein N of SARS-CoV Urbani [2]: 0.6
- Binding of serum 37 to looped/cyclic peptides of protein N of SARS-CoV Urbani [2]: 0.8
- Binding of serum 62 to linear peptides of protein N of SARS-CoV Urbani [2]: 0.6
- Binding of serum 62 to looped/cyclic peptides of protein N of SARS-CoV Urbani [2]: 1.0
- Binding of serum London to linear peptides of protein N of SARS-CoV Urbani [2]: 0.5
- Binding of serum London to looped/cyclic peptides of protein N of SARS-CoV Urbani [2]: 0.6
- Binding of serum SARS-green to linear peptides of protein N of SARS-CoV Urbani [2]: 0.3
- Binding of serum SARS-green to looped/cyclic peptides of protein N of SARS-CoV Urbani [2]: 0.7
- Binding of serum SARS-yellow to linear peptides of protein N of SARS-CoV Urbani [2]: 0.5
- Binding of serum SARS-yellow to looped/cyclic peptides of protein N of SARS-CoV Urbani [2]: 0.5
- Control Serum Blood-Bank Looped peptides [3]: 0.8
- Control serum Blood-bank linear peptides [3]: 0.8
- Control serum LUMC linear peptides [3]: 0.6
- Control serum LUMC looped peptides [3]: 0.8
- Binding of a rabbit serum to linear peptides of protein N of SARS-CoV Urbani (Rabbit serum linear peptides) [4]: 0.1
- Binding of a rabbit serum to looped/cyclic peptides of protein N of SARS-CoV Urbani (Rabbit serum looped peptides) [4]: 0.6

Sequence: IGTRNPNNNAATVLQ
- Binding of antibody 03-018 to linear peptides of the N protein of SARS-CoV Urbani [1]: 0.1
- Binding of antibody 03-018 to looped/cyclic peptides of the N protein of SARS-CoV Urbani [1]: 0.3
- Binding of serum 1a to linear peptides of protein N of SARS-CoV Urbani [2]: 0.3
- Binding of serum 1a to looped/cyclic peptides of protein N of SARS-CoV Urbani [2]: 0.4
- Binding of serum 1b to linear peptides of protein N of SARS-CoV Urbani [2]: 0.1
- Binding of serum 1b to looped/cyclic peptides of protein N of SARS-CoV Urbani [2]: 0.3
- Binding of serum 2 to linear peptides of protein N of SARS-CoV Urbani [2]: 0.4
- Binding of serum 2 to looped/cyclic peptides of protein N of SARS-CoV Urbani [2]: 0.7
- Binding of serum 6 to linear peptides of protein N of SARS-CoV Urbani [2]: 0.2
- Binding of serum 6 to looped/cyclic peptides of protein N of SARS-CoV Urbani [2]: 0.4
- Binding of serum 37 to linear peptides of protein N of SARS-CoV Urbani [2]: 0.7
- Binding of serum 37 to looped/cyclic peptides of protein N of SARS-CoV Urbani [2]: 0.9
- Binding of serum 62 to linear peptides of protein N of SARS-CoV Urbani [2]: 0.8
- Binding of serum 62 to looped/cyclic peptides of protein N of SARS-CoV Urbani [2]: 0.8
- Binding of serum London to linear peptides of protein N of SARS-CoV Urbani [2]: 0.5
- Binding of serum London to looped/cyclic peptides of protein N of SARS-CoV Urbani [2]: 0.6
- Binding of serum SARS-green to linear peptides of protein N of SARS-CoV Urbani [2]: 0.5
- Binding of serum SARS-green to looped/cyclic peptides of protein N of SARS-CoV Urbani [2]: 0.7
- Binding of serum SARS-yellow to linear peptides of protein N of SARS-CoV Urbani [2]: 0.6
- Binding of serum SARS-yellow to looped/cyclic peptides of protein N of SARS-CoV Urbani [2]: 0.5
- Binding of Control Serum Blood-Bank to Looped peptides [3]: 0.9
- Binding of Control serum Blood-bank to linear peptides [3]: 0.8
- Binding of Control serum LUMC to linear peptides [3]: 0.9
- Binding of Control serum LUMC to looped peptides [3]: 0.8
- Binding of a rabbit serum to linear peptides of protein N of SARS-CoV Urbani (Rabbit serum linear peptides) [4]: 0.1
- Binding of a rabbit serum to looped/cyclic peptides of protein N of SARS-CoV Urbani (Rabbit serum looped peptides) [4]: 0.4

Sequence: IGYYRRATRRVRGGD
- Binding of antibody 03-018 to linear peptides of the N protein of SARS-CoV Urbani [1]: 0.1
- Binding of antibody 03-018 to looped/cyclic peptides of the N protein of SARS-CoV Urbani [1]: 0.2
- Binding of serum 1a to linear peptides of protein N of SARS-CoV Urbani [2]: 0.2
- Binding of serum 1a to looped/cyclic peptides of protein N of SARS-CoV Urbani [2]: 0.3
- Binding of serum 1b to linear peptides of protein N of SARS-CoV Urbani [2]: 0.1
- Binding of serum 1b to looped/cyclic peptides of protein N of SARS-CoV Urbani [2]: 0.2
- Binding of serum 2 to linear peptides of protein N of SARS-CoV Urbani [2]: 0.1
- Binding of serum 2 to looped/cyclic peptides of protein N of SARS-CoV Urbani [2]: 0.5
- Binding of serum 6 to linear peptides of protein N of SARS-CoV Urbani [2]: 0.2
- Binding of serum 6 to looped/cyclic peptides of protein N of SARS-CoV Urbani [2]: 0.3
- Binding of serum 37 to linear peptides of protein N of SARS-CoV Urbani [2]: 0.5
- Binding of serum 37 to looped/cyclic peptides of protein N of SARS-CoV Urbani [2]: 0.7
- Binding of serum 62 to linear peptides of protein N of SARS-CoV Urbani [2]: 0.4
- Binding of serum 62 to looped/cyclic peptides of protein N of SARS-CoV Urbani [2]: 0.6
- Binding of serum London to linear peptides of protein N of SARS-CoV Urbani [2]: 0.4
- Binding of serum London to looped/cyclic peptides of protein N of SARS-CoV Urbani [2]: 0.4
- Binding of serum SARS-green to linear peptides of protein N of SARS-CoV Urbani [2]: 0.2
- Binding of serum SARS-green to looped/cyclic peptides of protein N of SARS-CoV Urbani [2]: 0.3
- Binding of serum SARS-yellow to linear peptides of protein N of SARS-CoV Urbani [2]: 0.6
- Binding of serum SARS-yellow to looped/cyclic peptides of protein N of SARS-CoV Urbani [2]: 0.5
- Binding of Control Serum Blood-Bank to Looped peptides [3]: 0.7
- Binding of Control serum Blood-bank to linear peptides [3]: 0.7
- Binding of Control serum LUMC to linear peptides [3]: 0.5
- Binding of Control serum LUMC to looped peptides [3]: 0.7
- Recognition of the peptide by the rabbit serum [4]: recognized
